Here are results for 48 compounds from patent US7026334B1, “Thiazolidine compounds and pharmaceutical compositions exhibiting thrombopoietin receptor agonism” (Shionogi & Co., Ltd., priority 1999, dated 2006).

The first test deals with T1, human TPO receptor (hTPOR) (Homo sapiens, UniProt P40238).
T1 construct: expressed in transfected cells; host or cells: BaF-BO3 (murine IL-3 dependent pro-B cell line), giving BaF/hTPOR
T1 sequence (P40238 26-635): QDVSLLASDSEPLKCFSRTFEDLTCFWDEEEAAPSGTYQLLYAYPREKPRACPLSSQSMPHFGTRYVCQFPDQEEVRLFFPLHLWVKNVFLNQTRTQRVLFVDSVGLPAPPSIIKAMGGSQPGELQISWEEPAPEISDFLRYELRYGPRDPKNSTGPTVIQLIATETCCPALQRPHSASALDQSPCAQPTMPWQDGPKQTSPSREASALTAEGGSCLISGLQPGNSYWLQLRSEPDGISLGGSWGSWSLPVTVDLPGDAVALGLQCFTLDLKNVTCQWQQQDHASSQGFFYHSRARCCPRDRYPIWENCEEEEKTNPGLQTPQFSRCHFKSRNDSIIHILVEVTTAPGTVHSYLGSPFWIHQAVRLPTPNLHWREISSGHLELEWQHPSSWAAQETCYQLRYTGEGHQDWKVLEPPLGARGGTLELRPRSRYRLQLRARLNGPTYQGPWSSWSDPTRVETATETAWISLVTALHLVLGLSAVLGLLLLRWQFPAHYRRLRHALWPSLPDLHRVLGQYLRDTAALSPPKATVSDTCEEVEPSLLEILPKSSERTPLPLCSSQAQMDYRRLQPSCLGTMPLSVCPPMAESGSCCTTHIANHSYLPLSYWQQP
Kind of test: Proliferation of TPO dependent BaF/hTPOR cells (thrombopoietic activity, WST-1). The format is cell-based. The settings on record: 20 hours + 4 hours WST-1, absorbance at 450 nm, ED50 = half concentration of the concentration showing the maximum thrombopoietic activity. The text has this:
The TPO dependent BaF/hTPOR cell line which was established by introducing human TPO receptor (hTPOR) into BaF-BO3 cells according to Collins et al (J. Cell. Physiol., 137:293-298 (1988)) was used to test the thrombopoietic activity of the present compound (B-17). The DNA sequences and encoded peptide sequences for human hTPOR have been described by Vigon et al (Proc. Natl. Acad. Sci. USA, 89:5640-5644 (1992)). […] BAF/hTPOR cells were maintained in RPMI medium and WEHI-3B conditioned medium as a source of murine interleukin-3 (IL-3). These cells were washed and resuspended in RPMI medium without a source of murine IL-3 and seeded into each well of 96-well microtiter plates at a density of […] cells per well in the absence or presence of various concentration of hTPO or the present compound. After incubation at 37° C. for 20 hours in the 5% CO2 incubator, 10% WST-1 reagent (Takara Biomedicals, Japan) was added to each wells and the cells were further incubated for 4 hours. Table 24 exemplifies the ED50 for tested compounds of the present invention, wherein the ED50 is the half concentration of the concentration showing the maximum thrombopoietic activity
In general terms: Formazan colour is commonly taken as a measure of viable cells.
As for `O=C1NC(=S)S/C1=C\c1ccc(C(=O)Nc2nc(-c3ccc(Cl)c(Cl)c3)cs2)cc1` [Compound A-1], the EC50 (as a rule, the midpoint of the concentration-response curve) worked out at 12 nM.

With `O=C1NC(=S)SC1=Cc1ccc(C(=O)Nc2nc(-c3ccccc3)cs2)cc1` [Compound A-2], the EC50 was determined as 58 nM. Still for that read-out and setting: to `O=C1NC(=S)SC1=Cc1ccc(C(=O)Nc2nc(-c3ccc(F)cc3)cs2)cc1` [Compound A-3] belongs 17 nM; to `O=C1NC(=S)SC1=Cc1ccc(C(=O)Nc2nc(-c3ccc(Br)cc3)cs2)cc1` [Compound A-4], 36 nM. For `O=C1NC(=S)SC1=Cc1ccc(C(=O)Nc2nc(-c3ccc(Cl)cc3)cs2)cc1` [Compound A-5], the EC50 is 22 nM.

Regarding `Cc1ccc(-c2csc(NC(=O)c3ccc(C=C4SC(=S)NC4=O)cc3)n2)cc1` [Compound A-6], the EC50 amounted to 45 nM.

As for `O=C1NC(=S)SC1=Cc1ccc(C(=O)Nc2nc(-c3ccc(-c4ccccc4)cc3)cs2)cc1` [Compound A-7], the EC50 is 60 nM. Turning to `CC(C)(C)c1ccc(-c2csc(NC(=O)c3ccc(/C=C4\SC(=S)NC4=O)cc3)n2)cc1` [Compound A-11], the EC50 stood at 31 nM. As to `COC(=O)c1ccc(-c2csc(NC(=O)c3ccc(/C=C4\SC(=S)NC4=O)cc3)n2)cc1` [Compound A-12], the EC50 was 11 nM. Same read-out and setting: with `O=C1NC(=S)S/C1=C\c1ccc(C(=O)Nc2nc(-c3ccc([N+](=O)[O-])cc3)cs2)cc1` [Compound A-14] the figure was 15 nM. Still for that read-out and setting: with `O=C1NC(=S)S/C1=C\c1ccc(C(=O)Nc2nc(-c3ccc(Cl)s3)cs2)cc1` [Compound A-15] the figure was 26 nM; with `O=C1NC(=S)S/C1=C\c1ccc(C(=O)Nc2nc(-c3cccs3)cs2)cc1` [Compound A-16], 49 nM. `O=C1NC(=S)S/C1=C\c1ccc(C(=O)Nc2nc(-c3ccc(F)c(F)c3)cs2)cc1` [Compound A-20]: the EC50 was determined as 29 nM. Same read-out and setting: with `O=C1NC(=S)S/C1=C\c1ccc(C(=O)Nc2nc(-c3ccc(Br)s3)cs2)cc1` [Compound A-21] the figure was 41 nM. Same read-out and setting: with `CC(C)OC(=O)c1ccc(-c2csc(NC(=O)c3ccc(/C=C4\SC(=S)NC4=O)cc3)n2)cc1` [Compound A-25] the figure was 99 nM; with `CCCCOC(=O)c1ccc(-c2csc(NC(=O)c3ccc(/C=C4\SC(=S)NC4=O)cc3)n2)cc1` [Compound A-26], 72 nM. Consider `CCOC(=O)c1sc(NC(=O)c2ccc(/C=C3\SC(=S)NC3=O)cc2)nc1-c1ccccc1` [Compound A-32], for which the EC50 came out at 77 nM. Same read-out and setting: with `Cc1sc(NC(=O)c2ccc(/C=C3\SC(=S)NC3=O)cc2)nc1-c1ccc(Cl)cc1` [Compound A-37] the figure was 27 nM; with `CCc1sc(NC(=O)c2ccc(/C=C3\SC(=S)NC3=O)cc2)nc1-c1ccccc1` [Compound A-38], 47 nM; with `COC(=O)c1sc(NC(=O)c2ccc(/C=C3\SC(=S)NC3=O)cc2)nc1-c1ccc(F)cc1` [Compound A-42], 72 nM.

With `O=C1NC(=S)S/C1=C\c1ccc(C(=O)Nc2nc(-c3ccc(F)cc3)c(CCCl)s2)cc1` [Compound A-43], the EC50 is 73 nM. On the same count and under the same terms, with `O=C1NC(=S)S/C1=C\c1ccc(C(=O)Nc2nc3c(s2)CCc2ccccc2-3)cc1` [Compound A-49] the figure was 35 nM; with `O=C1NC(=S)S/C1=C\c1ccc(C(=O)Nc2nc3c(s2)CCCc2ccccc2-3)cc1` [Compound A-50], 26 nM; with `O=C1NC(=S)S/C1=C\c1ccc(C(=O)Nc2nc(-c3cccc(C(F)(F)F)c3)cs2)cc1` [Compound A-53], 23 nM. For the compound `Cc1cc(Br)sc1-c1csc(NC(=O)c2ccc(/C=C3\SC(=S)NC3=O)cc2)n1` [Compound A-56], the EC50 came out at 96 nM. On the same count and under the same terms, to `O=C1NC(=S)S/C1=C\c1ccc(C(=O)Nc2nc3c(s2)CSc2ccccc2-3)cc1` [Compound A-59] belongs 84 nM.

As for `O=C1NC(=S)S/C1=C\c1ccc(C(=O)Nc2nc(-c3ccc(C(F)(F)F)cc3)cs2)cc1` [Compound A-61], the EC50 came to 69 nM.

`O=C1NC(=S)S/C1=C\c1ccc(C(=O)Nc2nc(-c3cccc(OC(F)(F)F)c3)cs2)cc1` [Compound A-63]: the EC50 worked out at 16 nM. For `O=C1NC(=S)S/C1=C\c1ccc(C(=O)Nc2nc(-c3cccc(F)c3)cs2)cc1` [Compound A-64], the EC50 is 47 nM. Turning to `O=C1NC(=S)S/C1=C\c1ccc(C(=O)Nc2nc(-c3ccccc3F)cs2)cc1` [Compound A-67], the EC50 came out at 50 nM. As for `O=C1NC(=S)S/C1=C\c1ccc(C(=O)Nc2nc(-c3ccc(F)cc3F)cs2)cc1` [Compound A-70], the EC50 came to 20 nM.

Consider `O=C1NC(=S)S/C1=C\c1ccc(C(=O)Nc2nc(-c3cc(F)c(F)cc3F)cs2)cc1` [Compound A-71], for which the half-maximal effective concentration (EC50) amounted to 80 nM. On to `O=C1NC(=S)S/C1=C\c1ccc(C(=O)Nc2nc(-c3cccc(Br)c3)cs2)cc1` [Compound A-72], for which the EC50 was 35 nM. For `O=C1NC(=S)S/C1=C\c1ccc(C(=O)Nc2nc(-c3ccc(I)cc3)cs2)cc1` [Compound A-73], the EC50 stood at 70 nM. Same read-out and setting: with `O=C1NC(=O)C(=Cc2ccc(C(=O)Nc3nc(-c4ccccc4)cs3)cc2)S1` [Compound B-1] the figure was 71 nM. As for `O=C1NC(=O)C(=Cc2ccc(C(=O)Nc3nc(-c4ccc(F)cc4)cs3)cc2)S1` [Compound B-2], the EC50 turned out to be 11 nM. The same measure, in the same setting: with `O=C1NC(=O)C(=Cc2ccc(C(=O)Nc3nc(-c4ccc(Br)cc4)cs3)cc2)S1` [Compound B-3] the figure was 47 nM. `O=C1NC(=O)C(=Cc2ccc(C(=O)Nc3nc(-c4ccc(Cl)cc4)cs3)cc2)S1` [Compound B-4]: the EC50 was 37 nM.

With `Cc1ccc(-c2csc(NC(=O)c3ccc(C=C4SC(=O)NC4=O)cc3)n2)cc1` [Compound B-5], the EC50 is 47 nM. For `O=C1NC(=O)C(=Cc2ccc(C(=O)Nc3nc(-c4ccc(-c5ccccc5)cc4)cs3)cc2)S1` [Compound B-6], the EC50 was determined as 72 nM.

Regarding `O=C1NC(=O)/C(=C/c2ccc(C(=O)Nc3nc(-c4ccc(Cl)s4)cs3)cc2)S1` [Compound B-14], the EC50 came out at 23 nM. Same read-out and setting: with `O=C1NC(=O)/C(=C/c2ccc(C(=O)Nc3nc(-c4cccs4)cs3)cc2)S1` [Compound B-15] the figure was 77 nM; with `O=C1NC(=O)/C(=C/c2ccc(C(=O)Nc3nc(-c4ccc(Cl)c(Cl)c4)cs3)cc2)S1` [Compound B-16], 20 nM; with `O=C1NC(=O)/C(=C/c2ccc(C(=O)Nc3nc(-c4ccc(F)c(F)c4)cs3)cc2)S1` [Compound B-18], 16 nM.

On to `O=C1NC(=O)/C(=C/c2ccc(C(=O)Nc3nc4c(s3)CCc3ccccc3-4)cc2)S1` [Compound B-21], for which the EC50 is 84 nM. Turning to `O=C1NC(=O)C(=Cc2ccc(C(=O)Nc3nc(-c4ccc(Cl)c(Cl)c4)cs3)cc2)O1` [Compound C-1], the EC50 stood at 68 nM. On the same count and under the same terms, to `O=C1NC(=O)C(=Cc2ccc(C(=O)Nc3nc(-c4ccc(Cl)c(Cl)c4)cs3)s2)S1` [Compound E-2] belongs 62 nM.

For another test, the system named is BaF-BO3 cells. The experiment in a line: Growth of the parental cell line BaF-BO3 not expressing TPOR. The format is cell-based. To be noted: FIG. 3.
Turning to “TPO: Thrombopoietin, polypeptide cytokine composed of 332 amino acids; Human TPO (hTPO) purchased from R&D Systems”, the “proliferation of parental BaF cells bearing no TPOR” value is recorded as “dose not have any ability to support proliferation”.
